The values below come from US9643967B2, “Pyrrolo[3,2-c]pyridine derivatives as TLR inhibitors” (TAKEDA PHARMACEUTICAL COMPANY LIMITED, priority 2013, dated 2017).

In the first test the target is T1, hTLR9 (Homo sapiens, UniProt Q9NR96).
T1 construct: expressed in transfected cells; host or cells: HEK-Blue-hTLR9 cells (HEK293)
T1 sequence (Q9NR96 26-1032): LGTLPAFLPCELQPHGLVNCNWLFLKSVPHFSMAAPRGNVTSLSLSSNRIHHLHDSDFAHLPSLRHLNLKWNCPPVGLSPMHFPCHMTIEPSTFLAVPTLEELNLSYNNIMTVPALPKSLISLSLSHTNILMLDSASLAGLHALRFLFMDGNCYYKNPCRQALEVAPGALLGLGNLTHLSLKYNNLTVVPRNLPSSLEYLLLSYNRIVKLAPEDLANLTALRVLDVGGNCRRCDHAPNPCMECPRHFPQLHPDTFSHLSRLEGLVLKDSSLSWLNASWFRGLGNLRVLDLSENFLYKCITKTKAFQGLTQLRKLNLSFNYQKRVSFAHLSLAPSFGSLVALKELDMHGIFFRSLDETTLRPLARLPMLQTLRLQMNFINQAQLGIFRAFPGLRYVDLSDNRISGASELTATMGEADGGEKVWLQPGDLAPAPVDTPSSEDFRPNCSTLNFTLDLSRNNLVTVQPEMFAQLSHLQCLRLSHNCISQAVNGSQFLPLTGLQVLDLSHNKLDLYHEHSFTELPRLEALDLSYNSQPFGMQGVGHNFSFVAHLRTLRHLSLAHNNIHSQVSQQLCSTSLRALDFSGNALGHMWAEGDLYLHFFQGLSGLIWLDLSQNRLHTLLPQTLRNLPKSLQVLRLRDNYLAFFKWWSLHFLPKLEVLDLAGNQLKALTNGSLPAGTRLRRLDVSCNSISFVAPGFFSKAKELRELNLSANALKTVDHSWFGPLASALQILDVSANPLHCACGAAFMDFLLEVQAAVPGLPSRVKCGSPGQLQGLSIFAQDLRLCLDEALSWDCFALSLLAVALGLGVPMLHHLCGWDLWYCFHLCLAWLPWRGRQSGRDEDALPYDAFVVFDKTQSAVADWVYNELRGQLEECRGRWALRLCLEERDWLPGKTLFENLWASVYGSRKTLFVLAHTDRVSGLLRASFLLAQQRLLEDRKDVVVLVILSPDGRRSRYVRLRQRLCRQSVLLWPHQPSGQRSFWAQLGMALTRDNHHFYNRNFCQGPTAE
As to the kind of experiment: hTLR9 antagonism (SEAP inhibition assay) in HEK-Blue-hTLR9 (HEK293) cells, ODN-2006 stimulated. The settings on record: 1 μM; SEAP, HEK-Blue-hTLR9 cells. It counts as cell-based. The method, then: hTLR9 Antagonism (SEAP Inhibition Assay) in HEK293 Cell Lines
The SEAP reporter gene in HEK-Blue™-hTLR9 cells is placed under the control of the IFN-b minimal promoter fused to five NF-kB and AP-1 binding sites. The stimulation with a TLR9 ligand (ODN-2006) activates NF-kB and AP-1 which induces the production of SEAP. Levels of SEAP are determined with QUANTI-Blue™ detection medium that turns purple/blue in the presence of alkaline phosphatase. Decrease in the levels of SEAP production as indicated by reduction in absorbance at 650 nm is directly co-related with the TLR9 inhibitory activity of the antagonist (NCE).
HEK-Blue™-hTLR9 cells were maintained in DMEM with 10% FBS, 1% Penicillin/Streptomycin/Amphotericin (complete growth medium) and 0.2% Normocin. For the assay, cells were dissociated by washing in 1×PBS and re-suspended in complete DMEM. Cells were seeded at a density of 20000 cells per well; (40 μl per well) in a 384 well assay plate.
5 μl of 10× antagonist (NCE) was added to the cells in triplicates for each concentration. The plate was incubated for half an hour at 37° C. with 5% CO2. 5 μl of agonist (ODN-2006) was added and the plate was incubated overnight for 18 hours at 37° C. with 5% CO2. 5 μl of supernatant was transferred to a 384 well reading plate and to this 45 μl of Quanti-Blue™ detection reagent was added. The plate was then incubated for an hour at 37° C. SEAP activity in the supernatant was indicated by change in the pink color of Quanti-Blue™ detection reagent to purple/blue and the absorbance was read at 650 nm in the end point mode.
Take `CC(C)N1CCN(C2CCC(c3nccc4[nH]c(CN5CCOCC5)cc34)CC2)CC1` (stereo not shown) [Example A80, 4-[[4-[4-(4-isopropylpiperazin-1-yl)cyclohexyl]-1H-pyrrolo[3,2-c]pyridin-2-yl]methyl]morpholine]: the “hTLR9 inhibitory activity (% at 1 μM)” value came to 95.8%.

The same test, now with this note: HEK-Blue hTLR9, 1 μM; SEAP, HEK-Blue-hTLR9 cells; read-out: hTLR9 inhibitory activity (% at 1 μM).
As for `c1cc2[nH]c(CN3CCOCC3)cc2c(-c2ccc(OC3CCNCC3)cc2)n1` [Example A49, 4-[[4-[4-(4-piperidyloxy)phenyl]-1H-pyrrolo[3,2-c]pyridin-2-yl]methyl]morpholine], the inhibition at 1 µM worked out at 91%.
In the case of `Cc1cc2[nH]c(CN3CCOCC3)cc2c(-c2ccc(C3CCN(C(C)C)CC3)cc2)n1` [Example A51, 4-[[4-[4-(1-isopropyl-4-piperidyl)phenyl]-6-methyl-1H-pyrrolo[3,2-c]pyridin-2-yl]methyl]morpholine], the inhibition at 1 µM came out at 100%.
Regarding `CC(C)N1CC=C(c2ccc(-c3nccc4[nH]c(CN5CCOCC5)cc34)cn2)CC1` [Example A52, 4-[[4-[6-(1-isopropyl-3,6-dihydro-2H-pyridin-4-yl)-3-pyridyl]-1H-pyrrolo[3,2-c]pyridin-2-yl]methyl]morpholine], the inhibition at 1 µM came out at 84.5%.
In the case of `CC(C)N1CCN(c2ccc(-c3nccc4[nH]c(CN5CCOCC5)cc34)cn2)CC1` [Example A53, 4-[[4-[6-(4-isopropylpiperazin-1-yl)-3-pyridyl]-1H-pyrrolo[3,2-c]pyridin-2-yl]methyl]morpholine], the inhibition at 1 µM came to 77%.
As to `CC(C)N1CCC(n2cc(-c3nccc4[nH]c(CN5CCOCC5)cc34)cn2)CC1` [Example A54, 4-[[4-[1-(1-isopropyl-4-piperidyl)pyrazol-4-yl]-1H-pyrrolo[3,2-c]pyridin-2-yl]methyl]morpholine], the inhibition at 1 µM was 95.4%.
Consider `CC(C)N1CCN(Cc2ccc(-c3nccc4[nH]c(CN5CCOCC5)cc34)cc2)CC1` [Example A55, 4-[[4-[4-[(4-isopropylpiperazin-1-yl)methyl]phenyl]-1H-pyrrolo[3,2-c]pyridin-2-yl]methyl]morpholine], for which the inhibition at 1 µM turned out to be 96.5%.
On to `CC(C)N1CCC(Oc2ccc(-c3nccc4[nH]c(CN5CCOCC5)cc34)cc2)CC1` [Example A56, 4-[[4-[4-[(1-isopropyl-4-piperidyl)oxy]phenyl]-1H-pyrrolo[3,2-c]pyridin-2-yl]methyl]morpholine], for which the inhibition at 1 µM came out at 99.5%.
The same measure, in the same setting: for `CC(C)N1CCN(c2cccc(-c3nccc4[nH]c(CN5CCOCC5)cc34)c2)CC1` [Example A57, 4-[[4-[3-(4-isopropylpiperazin-1-yl)phenyl]-1H-pyrrolo[3,2-c]pyridin-2-yl]methyl]morpholine] the value was 96.9%.
For `CN1CCN(Cc2ccc(-c3nccc4[nH]c(CN5CCOCC5)cc34)cc2)CC1` [Example A60, 4-[[4-[4-[(4-methylpiperazin-1-yl)methyl]phenyl]-1H-pyrrolo[3,2-c]pyridin-2-yl]methyl]morpholine], the inhibition at 1 µM is 86%.
Regarding `CN1CCN(c2cccc(-c3nccc4[nH]c(CN5CCOCC5)cc34)c2)CC1` [Example A61, 4-[[4-[3-(4-methylpiperazin-1-yl)phenyl]-1H-pyrrolo[3,2-c]pyridin-2-yl]methyl]morpholine], the inhibition at 1 µM worked out at 89.5%.
Turning to `CN1CCC(Oc2ccc(-c3nccc4[nH]c(CN5CCOCC5)cc34)cc2)CC1` [Example A62, 4-[[4-[4-[(1-methyl-4-piperidyl)oxy]phenyl]-1H-pyrrolo[3,2-c]pyridin-2-yl]methyl]morpholine], the inhibition at 1 µM turned out to be 98.2%.
Take `CN1CCC(n2cc(-c3nccc4[nH]c(CN5CCOCC5)cc34)cn2)CC1` [Example A63, 4-[[4-[1-(1-methyl-4-piperidyl)pyrazol-4-yl]-1H-pyrrolo[3,2-c]pyridin-2-yl]methyl]morpholine]: the inhibition at 1 µM is 93.4%.
With `CC(C)N1CCC(c2ccc(-c3nccc4[nH]c(CN5CCOCC5)cc34)cn2)CC1` [Example A64, 4-[[4-[6-(1-isopropyl-4-piperidyl)-3-pyridyl]-1H-pyrrolo[3,2-c]pyridin-2-yl]methyl]morpholine], the inhibition at 1 µM amounted to 73%.
Turning to `CC(C)N1CCC(c2ccc(-c3nccc4[nH]c(CN5CCOCC5)cc34)cc2)CC1` [Example A70, 4-[[4-[4-(1-isopropyl-4-piperidyl)phenyl]-1H-pyrrolo[3,2-c]pyridin-2-yl]methyl]morpholine], the inhibition at 1 µM turned out to be 100%.
Take `CC(C)N1CCN(c2ccc(-c3nccc4[nH]c(CN5CC(O)C5)cc34)cc2)CC1` [Example A72, 1-[[4-[4-(4-isopropylpiperazin-1-yl)phenyl]-1H-pyrrolo[3,2-c]pyridin-2-yl]methyl]azetidin-3-ol]: the inhibition at 1 µM came to 100%.
Consider `CC(C)N1CCN(c2ccc(-c3nccc4[nH]c(CN5CCC[C@@H]5C(=O)O)cc34)cc2)CC1` [Example A74, (2R)-1-[[4-[4-(4-isopropylpiperazin-1-yl)phenyl]-1H-pyrrolo[3,2-c]pyridin-2-yl]methyl]pyrrolidine-2-carboxylic acid], for which the inhibition at 1 µM amounted to 89.4%.
Regarding `c1cc2[nH]c(CN3CCOCC3)cc2c(-c2ccc(N3CCN(C4COC4)CC3)cc2)n1` [Example A81, 4-[[4-[4-[4-(oxetan-3-yl)piperazin-1-yl]phenyl]-1H-pyrrolo[3,2-c]pyridin-2-yl]methyl]morpholine], the inhibition at 1 µM is 64%.
Take `CC(C)N1CCN(c2ccc(-c3nccc4[nH]c(CCN5CCOCC5)cc34)cc2)CC1` [Example B1, 4-[2-[4-[4-(4-isopropylpiperazin-1-yl)phenyl]-1H-pyrrolo[3,2-c]pyridin-2-yl]ethyl]morpholine]: the inhibition at 1 µM turned out to be 100%.
`CN1CCN(c2ccc(-c3nccc4[nH]c(CCN5CCOCC5)cc34)cc2)CC1` [Example B2, 4-[2-[4-[4-(4-methylpiperazin-1-yl)phenyl]-1H-pyrrolo[3,2-c]pyridin-2-yl]ethyl]morpholine]: the inhibition at 1 µM was determined as 100%.
Turning to `Cc1cc2[nH]c(CCN3CCOCC3)cc2c(-c2ccc(N3CCN(C(C)C)CC3)cc2)n1` [Example B3, 4-[2-[4-[4-(4-isopropylpiperazin-1-yl)phenyl]-6-methyl-1H-pyrrolo[3,2-c]pyridin-2-yl]ethyl]morpholine], the inhibition at 1 µM amounted to 100%.
Take `Cc1cc2[nH]c(CCN3CCOCC3)cc2c(-c2ccc(N3CCN(C)CC3)cc2)n1` [Example B4, 4-[2-[6-methyl-4-[4-(4-methylpiperazin-1-yl)phenyl]-1H-pyrrolo[3,2-c]pyridin-2-yl]ethyl]morpholine]: the inhibition at 1 µM worked out at 100%.
For the molecule `Cc1cc2[nH]c(CCN3CCCCC3)cc2c(-c2ccc(N3CCN(C(C)C)CC3)cc2)n1` [Example B5, 4-[4-(4-isopropylpiperazin-1-yl)phenyl]-6-methyl-2-[2-(1-piperidyl)ethyl]-1H-pyrrolo[3,2-c]pyridine], the inhibition at 1 µM was determined as 78%.
With `Cc1nc(-c2ccc(N3CCN(C)CC3)cc2)c2cc(CCN3CCOCC3)[nH]c2c1C` [Example B7, 4-[2-[6,7-dimethyl-4-[4-(4-methylpiperazin-1-yl)phenyl]-1H-pyrrolo[3,2-c]pyridin-2-yl]ethyl]morpholine], the inhibition at 1 µM was determined as 81.6%.

The same test, now with this note: HEK-Blue hTLR9, read-out: hTLR9 inhibitory activity (% at 1 μM).
In the case of `CC(C)N1CCN(c2ccc(-c3nccc4[nH]c(C(=O)N5CCOCC5)cc34)cc2)CC1` [Example A82, [4-[4-(4-isopropylpiperazin-1-yl)phenyl]-1H-pyrrolo[3,2-c]pyridin-2-yl]-morpholino-methanone], the inhibition at 1 µM stood at 98%.
